We go through 1 compound from BindingDB's records for patent US11873292 (Shanghai Institute of Materia Medica, 2024).

A value given as a limit tells only on which side of the number the result lay.

The target in test [1] is T1, Amine oxidase [flavin-containing] B (Homo sapiens, UniProt P27338).
T1 sequence (P27338 whole entry): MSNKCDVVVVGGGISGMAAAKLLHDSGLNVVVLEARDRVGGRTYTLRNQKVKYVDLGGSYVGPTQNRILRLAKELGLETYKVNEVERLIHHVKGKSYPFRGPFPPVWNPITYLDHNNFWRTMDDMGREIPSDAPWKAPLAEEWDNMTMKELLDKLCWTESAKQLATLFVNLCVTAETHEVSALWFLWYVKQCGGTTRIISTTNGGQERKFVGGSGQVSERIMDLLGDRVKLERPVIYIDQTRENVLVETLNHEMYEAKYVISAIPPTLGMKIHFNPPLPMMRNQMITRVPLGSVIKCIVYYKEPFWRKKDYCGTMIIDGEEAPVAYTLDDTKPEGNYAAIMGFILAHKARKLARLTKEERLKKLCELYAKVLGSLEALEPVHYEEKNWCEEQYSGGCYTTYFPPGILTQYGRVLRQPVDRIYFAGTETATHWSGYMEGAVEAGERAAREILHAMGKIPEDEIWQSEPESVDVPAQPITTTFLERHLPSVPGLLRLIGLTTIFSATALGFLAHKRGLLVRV
Kind of test: MAOA and MAOB In Vitro Activity Assay.

Test [2] deals with T2, Amine oxidase [flavin-containing] A (Homo sapiens, UniProt P21397).
T2 sequence (P21397 whole entry): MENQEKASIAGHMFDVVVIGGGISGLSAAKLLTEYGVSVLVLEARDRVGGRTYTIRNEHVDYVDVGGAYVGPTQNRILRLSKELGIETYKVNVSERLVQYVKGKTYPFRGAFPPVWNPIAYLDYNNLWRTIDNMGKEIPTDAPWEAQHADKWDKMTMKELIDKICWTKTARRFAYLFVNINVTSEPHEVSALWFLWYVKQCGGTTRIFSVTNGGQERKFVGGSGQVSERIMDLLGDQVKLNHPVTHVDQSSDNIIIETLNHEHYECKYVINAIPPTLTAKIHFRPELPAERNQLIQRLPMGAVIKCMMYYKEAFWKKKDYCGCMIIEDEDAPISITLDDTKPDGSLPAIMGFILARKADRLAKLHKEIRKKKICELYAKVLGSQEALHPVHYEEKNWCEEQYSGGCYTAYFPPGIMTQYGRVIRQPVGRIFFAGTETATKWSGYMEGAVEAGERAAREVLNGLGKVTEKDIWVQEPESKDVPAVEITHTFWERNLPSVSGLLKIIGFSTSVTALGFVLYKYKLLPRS
Put plainly: MAOA and MAOB In Vitro Activity Assay.

For test [3], the target named is Lysine-specific histone demethylase 1A (Homo sapiens, UniProt O60341). Kind of test: LSD1 in vitro activity assay.

A word on the IC50: it is the midpoint of a concentration-inhibition curve. For `O=S(=O)(c1ccccc1)N1CCc2cc(C3CC3NCc3c[nH]c4ccccc34)ccc21` (trans isomer) [US11873292, Compound A8], the IC50 was > 100 µM in test [1], 81.7 µM in test [2] and 0.0851 µM in test [3].
